From patent US8187826B2, “Quantitative analysis of in vivo mutation at the Pig-A locus” (Litron Laboratories, Ltd., priority 2008, dated 2012) come the findings set out here.

The subject of data set [1] is GPI anchor-deficient RETs (Pig-A locus). The experiment in a line: Pig-A mutation assay: frequency of GPI anchor-deficient (mutant phenotype) RETs, rats. The data set is classed as in vivo, Wistar rats. From the text:
(§1) These in vivo experiments utilized naïve rats and focused on the development of simple and reproducible methods for staining and analyzing peripheral blood RBCs and RETs for the GPI anchor-deficient phenotype. As reported elsewhere, it was confirmed that the GPI-anchored protein CD59 is highly and stably expressed on RBCs throughout their lifespan in circulation (Hernández-Campo et al., “Quantitative Analysis of the Expression of Glycosylphosphatidylinositol-Anchored Proteins During the Maturation of Different Hematopoietic Cell Compartments of Normal Bone Marrow,” Cytometry 72B:34-42 (2007), which is hereby incorporated by reference in its entirety). […] A second fluorescent reagent, SYTO® 13 dye, was chosen to differentially stain NCEs, RETs, and leukocytes. […] Secondly, it provided better fluorescent resolution between NCEs, RETs and blood leukocytes. The separation of these latter two populations is particularly important, because not all leukocytes express CD59, and these cells can therefore be mistaken for GPI anchor-deficient RBCs if they are not excluded from analysis. Early staining trials also included a third fluorescent reagent, anti-platelet antibody (biotinylated anti-CD61 plus streptavidin-Cy5-PE), which was added to positively identify platelets and prevent platelets from interfering with the RBC-centric analyses.
(§2) The prior three-color staining strategy outlined above has been described in Bryce et al., “In vivo mutation assay based on the endogenous Pig-a locus”, Environ. Molec. Mutagen. 49:256-264 (2008) as well as U.S. Patent Application Publ. […] Samples processed in this manner were evaluated with and without the anti-platelet antibody, and virtually identical values were consistently obtained. […]
(§3) The thresholding technique is based on the fact that the vast majority of Lympholyte® processed blood cells are mature RBCs. […] In this case, it is possible to set the threshold parameter to the nucleic acid dye-associated fluorescence channel (i.e., FL1 for SYTO® 13), as opposed to the more common forward scatter trigger. […]

Data set [2] shares this test system. The experiment in a line: Pig-A mutation assay: frequency of mutant phenotype RETs, mice. To be noted: male CD-1 mice, 40 mg/kg/day oral gavage Days 1-3, FIG. 8C. Type of data set: in vivo. As to the method:
(§4) The cross-species potential of this assay is illustrated by this example, whereby male CD-1 mice were treated on three consecutive days (Day 1, 2 and 3) with N-ethyl-N-nitrosourea (ENU) via oral gavage. The dose levels were 0 or 40 mg/kg/day. Blood harvests occurred on Days 4, 15, 30, 45 and 90 (n=5 per time point per dose). Whereas the rat experiments described in Examples 2-4 above were based on serial blood draws, the mouse experiments were not. Rather, each mouse provided only one blood specimen, thereby requiring like-treated groups of animals to generate the data for each time point studied. This was done to eliminate the possible confounding effect that repeat-blood sampling may have had on the results given the low total blood volume associated with this particular small animal model.

The subject of data set [3] is reticulocytes. The experiment in a line: frequency of reticulocytes (% RET) in peripheral blood, flow cytometry, rats. The data set is classed as in vivo. To be noted: male Wistar rats, FIG. 5A. An excerpt: These in vivo experiments utilized naïve rats and focused on the development of simple and reproducible methods for staining and analyzing peripheral blood RBCs and RETs for the GPI anchor-deficient phenotype. As reported elsewhere, it was confirmed that the GPI-anchored protein CD59 is highly and stably expressed on RBCs throughout their lifespan in circulation (Hernández-Campo et al., “Quantitative Analysis of the Expression of Glycosylphosphatidylinositol-Anchored Proteins During the Maturation of Different Hematopoietic Cell Compartments of Normal Bone Marrow,” Cytometry 72B:34-42 (2007), which is hereby incorporated by reference in its entirety). […] A second fluorescent reagent, SYTO® 13 dye, was chosen to differentially stain NCEs, RETs, and leukocytes. […] Secondly, it provided better fluorescent resolution between NCEs, RETs and blood leukocytes. The separation of these latter two populations is particularly important, because not all leukocytes express CD59, and these cells can therefore be mistaken for GPI anchor-deficient RBCs if they are not excluded from analysis. […]
The prior three-color staining strategy outlined above has been described in Bryce et al., “In vivo mutation assay based on the endogenous Pig-a locus”, Environ. […] Samples processed in this manner were evaluated with and without the anti-platelet antibody, and virtually identical values were consistently obtained. […]

Data set [4] has as its system reticulocytes. The experiment in a line: frequency of reticulocytes (% RET) in peripheral blood, flow cytometry, mice. As to conditions: male CD-1 mice, 40 mg/kg/day oral gavage Days 1-3, FIG. 8A. The data set is classed as in vivo. The procedure: as §4
(In general: Flow cytometry measures light scatter and fluorescence of single cells or particles in a stream.)

The subject of data set [5] is GPI anchor-deficient RBCs (Pig-A locus). The experiment in a line: Pig-A mutation assay: frequency of mutant phenotype RBCs, mice. Type of data set: in vivo. To be noted: male CD-1 mice, 40 mg/kg/day oral gavage Days 1-3, FIG. 8B. As to the method: as §4
Data set [6] has the same test system. The experiment in a line: Pig-A mutation assay: frequency of GPI anchor-deficient (mutant phenotype) RBCs, rats. Type of data set: in vivo, Wistar rats.
Description: as §1, §2, §3

On to `CCN(N=O)C(N)=O` [ENU, N-ethyl-N-nitrosourea], for which the “frequency of mutant phenotype RETs” value in data set [1] (male Wistar rats, 1, 5, 10 or 15 mg/kg/day oral gavage on 14 consecutive days, blood Day 23, FIG. 7B) is “very robust, dose-related increase in mutant cells”; in data set [2] (Day 15) it was “greatly elevated”; in data set [2] (through Day 90), “Robust increases in mutant cell frequency”. The “day on which maximal or near-maximal mutant RET frequency is reached” value in data set [1] (male Wistar rats, 20 or 40 mg/kg/day oral gavage Days 1-3, FIG. 5C) came out at 15 days. Besides, the “frequency of mutant phenotype (GPI anchor-deficient) RETs” value in data set [1] (male Wistar rats, 20 or 40 mg/kg/day oral gavage Days 1-3, evident by Day 15, FIG. 5C) is “Robust, dose-related increases in mutant cell frequency”. In addition, the “frequency of reticulocytes (% RET)” value with reticulocytes [3] (20 or 40 mg/kg/day oral gavage Days 1-3, vs vehicle control) is “mean % RET are reduced in a dose-dependent manner”; in the data set with reticulocytes [4] (Day 4), “significantly reduced”. Also, the “frequency of reticulocytes (% RET), rebound effect” value in the data set with reticulocytes [3] (high dose group (40 mg/kg/day oral gavage Days 1-3), vs control values) is ““overshoots” the control values”; in the data set with reticulocytes [4] (Day 15, vs control values), ““overshoots” the control values”. The “frequency of mutant phenotype RBCs” value is listed as “increased mutant cell frequencies” in data set [5] (by Day 15) and “very robust, dose-related increase in mutant cells” in data set [6] (male Wistar rats, 1, 5, 10 or 15 mg/kg/day oral gavage on 14 consecutive days, blood Day 23, FIG. 7A). In data set [5] (stable thereafter through Day 90), the “day on which maximum mutant RBC frequency is apparent” value was found to be 30 days. Further, the “frequency of mutant phenotype (GPI anchor-deficient) RBCs” value in data set [6] (male Wistar rats, 20 or 40 mg/kg/day oral gavage Days 1-3, Day 15 through Day 90, FIG. 5B) is “Robust, dose-related increases in mutant cell frequency”. The “day on which maximal mutant RBC frequency is reached” value in data set [6] (male Wistar rats, 20 or 40 mg/kg/day oral gavage Days 1-3, plateau thereafter, FIG. 5B) is no more than 45 days.
